Assay results from US8796305B2 (Bayer Pharma Aktiengesellschaft, priority 2012, dated 2014).
Counter-ions that a name gives are not always drawn.

Molecular target: T1, recombinant guanylate cyclase reporter cell line (Rattus norvegicus, UniProt P19686+P20595)
T1 construct: expressed in transfected cells
T1 sequence (P20595 1-619): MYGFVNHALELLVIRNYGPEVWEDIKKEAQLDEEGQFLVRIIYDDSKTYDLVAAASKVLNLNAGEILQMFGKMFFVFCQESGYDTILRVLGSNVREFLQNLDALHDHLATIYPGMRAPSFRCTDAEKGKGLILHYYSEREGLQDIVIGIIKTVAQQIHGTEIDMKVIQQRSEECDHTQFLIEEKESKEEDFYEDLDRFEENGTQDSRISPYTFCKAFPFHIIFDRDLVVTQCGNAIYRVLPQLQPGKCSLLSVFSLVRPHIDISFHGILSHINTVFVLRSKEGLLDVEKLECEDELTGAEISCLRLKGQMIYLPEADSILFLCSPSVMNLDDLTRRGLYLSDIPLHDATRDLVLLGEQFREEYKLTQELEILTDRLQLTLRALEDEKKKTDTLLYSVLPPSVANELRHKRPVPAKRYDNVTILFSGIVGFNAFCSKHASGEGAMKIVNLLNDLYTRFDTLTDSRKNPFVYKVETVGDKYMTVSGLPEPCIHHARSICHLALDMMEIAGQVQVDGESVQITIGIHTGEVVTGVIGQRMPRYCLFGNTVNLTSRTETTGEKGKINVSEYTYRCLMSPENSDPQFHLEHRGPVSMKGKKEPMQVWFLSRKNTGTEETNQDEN
T1 sequence (P19686 1-690): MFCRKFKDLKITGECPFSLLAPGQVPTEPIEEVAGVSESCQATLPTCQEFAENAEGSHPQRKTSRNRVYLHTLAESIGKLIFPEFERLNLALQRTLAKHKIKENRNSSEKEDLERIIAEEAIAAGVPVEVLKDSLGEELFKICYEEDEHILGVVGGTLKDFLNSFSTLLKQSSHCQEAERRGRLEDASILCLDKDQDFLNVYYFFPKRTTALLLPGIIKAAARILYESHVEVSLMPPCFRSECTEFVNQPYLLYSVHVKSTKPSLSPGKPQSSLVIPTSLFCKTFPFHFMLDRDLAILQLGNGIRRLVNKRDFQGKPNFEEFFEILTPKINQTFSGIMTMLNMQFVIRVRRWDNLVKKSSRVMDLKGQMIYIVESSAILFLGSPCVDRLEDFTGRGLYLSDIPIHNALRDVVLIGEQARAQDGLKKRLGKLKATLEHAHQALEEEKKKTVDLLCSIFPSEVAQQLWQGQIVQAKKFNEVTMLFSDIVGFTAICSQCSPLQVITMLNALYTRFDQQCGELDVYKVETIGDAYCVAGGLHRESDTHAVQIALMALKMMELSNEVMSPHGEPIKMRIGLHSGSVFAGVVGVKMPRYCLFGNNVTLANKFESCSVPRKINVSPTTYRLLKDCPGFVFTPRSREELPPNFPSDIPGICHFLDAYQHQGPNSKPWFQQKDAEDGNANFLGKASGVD
Assay: Action on recombinant guanylate cyclase reporter cell line
Type: cell-based
Details: representative MEC values
Protocol: B-2. Action on Recombinant Guanylate Cyclase Reporter Cell Line
The cellular action of the compounds according to the invention is determined on a recombinant guanylate cyclase reporter cell line, as described in F. Wunder et al., Anal. Biochem. 339, 104-112 (2005).
Representative MEC values (MEC=minimal effective concentration) for the compounds according to the invention are shown in the following table: […]

MEC (minimal effective concentration) [µM]	Structure (SMILES)
1.0	CCCCC(NC(=O)c1c(C)nc2c(OCc3c(F)cccc3F)cccn12)C(=O)OC (single isomer, unassigned; enantiomer b) [Example 19, ent-Methyl N-({8-[(2,6-difluorobenzyl)oxy]-2-methylimidazo[1,2-a]pyridin-3-yl}carbonyl)-norleucinate (Enantiomer B)]
0.3	Cc1nc2c(OCc3c(F)cccc3F)cccn2c1C(=O)N[C@@H]1CCOC1=O [Example 3, 8-[(2,6-Difluorobenzyl)oxy]-2-methyl-N-[(3R)-2-oxotetrahydrofuran-3-yl]imidazo[1,2-a]pyridine-3-carboxamide]
0.3	COC(=O)C(CCCC(F)(F)F)NC(=O)c1c(C)nc2c(OCc3c(F)ccc(F)c3F)cc(C)cn12 (racemic) [Example 14, rac-Methyl N-({2,6-dimethyl-8-[(2,3,6-trifluorobenzyl)oxy]imidazo[1,2-a]pyridin-3-yl}carbonyl)-6,6,6-trifluoronorleucinate]
0.3	COC(=O)C(CCCC(F)(F)F)NC(=O)c1c(C)nc2c(OCc3c(F)cccc3F)cc(C)cn12 (racemic) [Example 12, rac-Methyl N-({8-[(2,6-difluorobenzyl)oxy]-2,6-dimethylimidazo[1,2-a]pyridin-3-yl}carbonyl)-6,6,6-trifluoronorleucinate]
3.0	COC(=O)C(CC(F)(F)F)NC(=O)c1c(C)nc2c(OCc3c(F)cccc3F)cccn12 (racemic) [Example 9, rac-Methyl 2-[({8-[(2,6-difluorobenzyl)oxy]-2-methylimidazo[1,2-a]pyridin-3-yl}carbonyl)amino]-4,4,4-trifluorobutanoate]
2.0	CCCC[C@H](NC(=O)c1c(C)nc2c(OCc3c(F)cccc3F)cccn12)C(=O)O [Example 23, N-({8-[(2,6-Difluorobenzyl)oxy]-2-methylimidazo[1,2-a]pyridin-3-yl}carbonyl)norleucine hydrochloride]
0.3	COC(=O)C(NC(=O)c1c(C)nc2c(OCc3c(F)cccc3F)cccn12)c1ccc(F)cc1 (racemic) [Example 1, rac-Methyl [({8-[(2,6-difluorobenzyl)oxy]-2-methylimidazo[1,2-a]pyridin-3-yl}carbonyl)amino]-(4-fluorophenyl)acetate]
1.0	COC(=O)CCNC(=O)c1c(C)nc2c(OCc3c(F)cccc3F)cccn12 [Example 7, Methyl N-({8-[(2,6-difluorobenzyl)oxy]-2-methylimidazo[1,2-a]pyridin-3-yl}carbonyl)-beta-alaninate]
1.0	Cc1cc(OCc2c(F)cccc2F)c2nc(C)c(C(=O)NC[C@H]3CC[C@H](C(=O)O)CC3)n2c1 [Example 25, trans-4-{[({8-[(2,6-Difluorobenzyl)oxy]-2,6-dimethylimidazo[1,2-a]pyridin-3-yl}carbonyl)amino]methyl}cyclohexanecarboxylic acid]
1.0	COC(=O)CC(NC(=O)c1c(C)nc2c(OCc3c(F)cccc3F)cccn12)C(F)(F)F (racemic) [Example 17, rac-Methyl 3-[({8-[(2,6-difluorobenzyl)oxy]-2-methylimidazo[1,2-a]pyridin-3-yl}carbonyl)-amino]-4,4,4-trifluorobutanoate]
1.0	COC(=O)CC(C)NC(=O)c1c(C)nc2c(OCc3c(F)cccc3F)cccn12 (racemic) [Example 4, rac-Methyl 3-[({8-[(2,6-difluorobenzyl)oxy]-2-methylimidazo[1,2-a]pyridin-3-yl}carbonyl)amino]butanoate]
0.3	COC(=O)C(C)(C)NC(=O)c1c(C)nc2c(OCc3c(F)cccc3F)cccn12 [Example 5, Methyl N-({8-[(2,6-difluorobenzyl)oxy]-2-methylimidazo[1,2-a]pyridin-3-yl}carbonyl)-2-methylalaninate]
0.3	COC(=O)C(CCCC(F)(F)F)NC(=O)c1c(C)nc2c(OCc3c(F)cccc3F)cc(Cl)cn12 (racemic) [Example 13, rac-Methyl N-({6-chloro-8-[(2,6-difluorobenzyl)oxy]-2-methylimidazo[1,2-a]pyridin-3-yl}carbonyl)-6,6,6-trifluoronorleucinate]
0.3	COC(=O)CCCCCCCNC(=O)c1c(C)nc2c(OCC3CCCCC3)cccn12 [Example 16]
3.0	COC(=O)[C@@H](C)NC(=O)c1c(C)nc2c(OCc3c(F)cccc3F)cccn12 [Example 6, Methyl N-({8-[(2,6-difluorobenzyl)oxy]-2-methylimidazo[1,2-a]pyridin-3-yl}carbonyl)-D-alaninate]
1.0	COC(=O)C(CCC(F)(F)F)NC(=O)c1c(C)nc2c(OCc3c(F)cccc3F)cccn12 (racemic) [Example 10, rac-Methyl N-({8-[(2,6-difluorobenzyl)oxy]-2-methylimidazo[1,2-a]pyridin-3-yl}carbonyl)-5,5,5-trifluoronorvalinate]
0.1	Cc1nc2c(OCc3c(F)cccc3F)cccn2c1C(=O)NCCCCCCCC(=O)O [Example 21, 8-[({8-[(2,6-Difluorobenzyl)oxy]-2-methylimidazo[1,2-a]pyridin-3-yl}carbonyl)amino]octanoic acid]
1.0	CCCCC(NC(=O)c1c(C)nc2c(OCc3c(F)cccc3F)cccn12)C(=O)OC (racemic) [Example 8, rac-Methyl N-({8-[(2,6-difluorobenzyl)oxy]-2-methylimidazo[1,2-a]pyridin-3-yl}carbonyl)norleucinate]
1.0	COC(=O)CCCCCCCNC(=O)c1c(C)nc2c(OCc3c(F)cccc3F)cccn12 [Example 15, Methyl 8-[({8-[(2,6-difluorobenzyl)oxy]-2-methylimidazo[1,2-a]pyridin-3-yl}carbonyl)amino]octanoate]
0.3	CCCCC(NC(=O)c1c(C)nc2c(OCc3c(F)cccc3F)cccn12)C(=O)OC (single isomer, unassigned; enantiomer a) [Example 18, ent-Methyl N-({8-[(2,6-difluorobenzyl)oxy]-2-methylimidazo[1,2-a]pyridin-3-yl}carbonyl)-norleucinate (Enantiomer A)]
0.3	Cc1nc2c(OCC3CCCCC3)cccn2c1C(=O)NCCCCCC(=O)O [Example 22, 6-({[8-(Cyclohexylmethoxy)-2-methylimidazo[1,2-a]pyridin-3-yl]carbonyl}amino)hexanoic acid]
0.3	COC(=O)C(CCCC(F)(F)F)NC(=O)c1c(C)nc2c(OCc3c(F)cccc3F)cccn12 (racemic) [Example 11, rac-Methyl N-({8-[(2,6-difluorobenzyl)oxy]-2-methylimidazo[1,2-a]pyridin-3-yl}carbonyl)-6,6,6-trifluoronorleucinate]
0.1	COC(=O)[C@H]1CC[C@H](CNC(=O)c2c(C)nc3c(OCc4c(F)cccc4F)cc(C)cn23)CC1 [Example 24, Methyl trans-4-{[({8-[(2,6-difluorobenzyl)oxy]-2,6-dimethylimidazo[1,2-a]pyridin-3-yl}carbonyl)-amino]methyl}cyclohexanecarboxylate]
0.3	COC(=O)C(NC(=O)c1c(C)nc2c(OCc3c(F)cccc3F)cccn12)c1ccc(Cl)cc1 (racemic) [Example 2, rac-Methyl (4-chlorophenyl)[({8-[(2,6-difluorobenzyl)oxy]-2-methylimidazo[1,2-a]pyridin-3-yl}carbonyl)amino]acetate]
0.065	Cc1nc2c(OCC3CCCCC3)cccn2c1C(=O)NCCCCCCCC(=O)O [Example 20, 8-({[8-(Cyclohexylmethoxy)-2-methylimidazo[1,2-a]pyridin-3-yl]carbonyl}amino)octanoic acid]
